Data from US20260000642A1 (Tay Therapeutics Limited, priority 2022, published 2026).
Values after ≈ are worked out from the molar mass of the structure shown.

Experiments:
[1] = Thermodynamic solubility in FaSSIF pH 6.5 buffer; assay type: physicochemical; conditions: thermodynamic from solid, FaSSIF pH 6.5, 25° C., Method 2 (LCMS)
Text: BET protein inhibitors with a high aqueous solubility are in some embodiments promising oral drug candidates. Some of the exemplary compounds of the current disclosure have high solubility (measured in μM) in Fasted State Simulated Intestinal Fluid (FaSSIF) pH 6.5 buffer. The experimental methods and results (Table 4) are provided hereinafter.
Thermodynamic Solubility Assay, Method 1
FaSSIF v2 buffer is freshly prepared prior to use according to the suppliers' instructions and the pH adjusted to 6.5 using 1 M NaOH or 1 M HCl as required. From 1 mM working solution of test compound in DMSO, the λmax of the test compound is determined by scanning from 200 nm to 700 nm, in 1 nm steps with an EPOCH UV/Visible spectrophotometer (Biotek Instruments Inc.). A 12-point standard curve of compound concentration versus absorption at λmax is generated via two-fold serial dilutions of the 1 mM working solution with DMSO. Approximately 1 mg of test compound is accurately weighed into an Eppendorf tube and the appropriate volume of FaSSIF buffer is added to make a nominal concentration of 1 mg/mL. […]
FaSSIF buffer was prepared according to the suppliers' instructions and the pH adjusted to 6.5 using 1 M NaOH or 1 M HCl as required. […] The concentration of the test compound in the filtrate was determined by LCMS analysis with reference to the internal standards to determine the solubility in the buffer.

BRD4 BD1 = biological target: T1, BRD4 BD1 (Homo sapiens, UniProt O60885); assay: NanoBRET bromodomain assay, NanoLuc-BRD4-BD1 fusion vector in HEK293 cells; assay type: cell-based; conditions: top concentration 10 μM
T1 construct: HEK293 cells were transfected using NanoLuc-BRD4-BD1 or NanoLuc-BRD4-BD2 fusion vectors; host or cells: HEK293
Text: (§1) Bromodomain Assay Procedure

BRD4 BD2 = biological target: T2, BRD4 BD2 (Homo sapiens, UniProt O60885); assay: NanoBRET bromodomain assay, NanoLuc-BRD4-BD2 fusion vector in HEK293 cells; assay type: cell-based; conditions: NanoBRET, HEK293 cells, top concentration 10 μM
T2 construct: HEK293 cells were transfected using NanoLuc-BRD4-BD1 or NanoLuc-BRD4-BD2 fusion vectors; host or cells: HEK293
Text: as §1

[2] = Plasma stability assay, rat plasma; assay type: in vitro ADME; conditions: 37° C., Method 2 (10 μM)
Method: Exemplary compounds of the disclosure are stable upon incubation in mouse plasma. Stability is expressed as a % remaining after 120 minutes. The experimental methods and results (Table 2) are provided hereinafter.
Plasma Stability Assay, Method 1
From stock solution of compound in 10 mM DMSO, a working solution of 1 mM is prepared by diluting the compound in DMSO. To 398 μL of plasma pre-warmed at 37° C. for 15 minutes), 2 μL of working solution of compound is added, resulting in a final concentration of 5 μM (0.5% DMSO) for the compound. The sample is then incubated at 37° C. Aliquot is withdrawn at specified time-points (0, 15, 30, 60 and 120 mins). The reaction is stopped by addition of 450 μL cold acetonitrile containing internal standard (IS). […] Aliquots of the supernatant is analysed using LC-MS/MS. The percent remaining of the compound at each time point is calculated with respect to the control sample (0 min time-point).
Plasma Stability Assay, Method 2
A working solution of compound (500 μM) is prepared in DMSO (100%). To 735 μL of plasma, 15 μL of working solution of compound is added—resulting in a final concentration of 10 μM (2% DMSO) for the compound. The sample is then incubated at 37° C. Aliquot is withdrawn at time-points—0, 15, 30, 60, 90 and 120 mins. The reaction is stopped by using chilled acetonitrile containing internal standard (IS). The samples are centrifuged and the supernatants analyzed using LC-MS/MS. The percent remaining of the compound at each time point is calculated with respect to the control sample (0 min time-point).

Q: What does the source list for `CNC(=O)c1[nH]c(C(=O)NC2CCC(O)CC2)cc1OC(C)c1ccc(Cl)cc1` (single isomer, unassigned) [Example 29, 3-(1-(4-chlorophenyl)ethoxy)-N^5-(4-hydroxycyclohexyl)-N^2-methyl-1H-pyrrole-2,5-dicarboxamide]?
A: solubility thermodynamic [1]: 1230 µM (≈ 516 µg/mL); IC50 (BRD4 BD1): ≥ 10 µM; IC50 (BRD4 BD2): 50 to 200 nM; Plasma Stability (% remaining at 120 minutes) Rat [2]: 89%
